According to patent US4875922A, “Pyrimidine derivatives” (Imperial Chemical Industries PLC, priority 1986, dated 1989):
Like-named read-outs stand apart in the source and are kept apart here.

Experiments:
[1] = system: Rice; experiment: Intermediate Retardant Test, rice; format: in vivo, Rice (Ishikari); conditions: Oryza sativa, 672 h, read-out: Percentage Reduction in Height of Rice (Compared to formulation blank)
From the text: (§1) Three species are involved in this test RICE, SPRING-BARLEY and APPLES. The variety and growth stages at spray are outlined in Table V. Compounds were applied at 500 ppm and 2000 ppm respectively (0.5 kg and 2 kg/ha^-1 at a field volume of 1000 l/ha^-1) as an overall spray except in the case of certain tests on APPLES. This gives a foliar and root component in the test, i.e., this test will detect the activity of both root and foliar acting compounds. The intermediate retardant test on APPLES of which the results are given in Table IX was different, in that a foliar (only) spray at 2000 ppm was compared with a root drench, also at 2000 ppm. The rice was grown in 4" `paddy` pots, i.e., the roots and bottom of the stems are immersed in water under conditions corresponding to those in paddy fields. Spring barley and apples were grown in 4" pots. The plants were assessed for height to top-most ligule at approximately 28 days after treatment for spring barley and rice and for height to apex at approximately 28 days after the treatment for apples. In each case the result for the 500 ppm and 2000 ppm test for each compound is compared to the height of the formulation blank in that test, presented as a percentage reduction in height compared to the formulation blank.
(§2) The prior art compound was compared with compounds of the present invention in side-by-side comparisons using the Intermediate Retardant Test described in Example 62, and the results are given in Tables X to XII where `A` is the prior art compound, 2-methyl-1-isopropyl-1-(pyrimidin-5-yl)-propan-1-ol).

[2] = system: Spring Barley; experiment: Intermediate Retardant Test, spring barley; format: in vivo, Spring Barley (Atem/kym); conditions: Hordeum vulgare, 672 h, read-out: Percentage Reduction in Height of Spring Barley (Compared to formulation blank)
From the text: as §1, §2

[3] = system: Apples; experiment: Intermediate Retardant Test, apples, foliar spray compared with root drench; format: in vivo, Apples (Red Delicious); conditions: 672 h, read-out: Percentage Reduction in Height of Apples (Compared to formulation blank); for percent reduction in plant height at 2000 µg/mL: soil, 2000 pmm (Root), root drench
From the text: as §1, §2

[4] = system: Barley; experiment: Whole plant screen for plant growth regulator activity, barley (BR); format: in vivo, Barley (Atem); conditions: BR, 4000 ppm (4 kg/ha), visual score after 2-6 weeks; for T = Tillering or side shooting: * = decrease in tillering
Protocol: (§3) Compounds 1 to 3 in Table 1 were tested for plant growth regulator activity against five species for various growth effects relevant to plant growth regulation.
(§4) The plant species used in this screen are presented in Table II with the leaf stage at which they were sprayed. Each chemical was applied at 4000 ppm (4 kg/ha in a 1000 l/ha field volume) using a tracksprayer and a SS8004E (Teejet) nozzle.
(§5) After spray the plants were grown in a glasshouse with 25° C. day/22° C. night temperatures and supplementary lighting was supplied when necessary (from mercury vapour lamps), to provide a 16 hour photoperiod. The exception to this were the temperate cereals, wheat and barley which were grown in 16° C. day/13° C. night temperatures.
(§6) After 2-6 weeks in the glasshouse, depending on the time of year, the plants were visually assessed for morphological characteristics. Formulation blanks were used as controls to assess the plants.
(§7) Additional compounds in Table I were tested for plant growth regulator activity using the method of Example 60 except that Tomato was included in the test as an additional species. Tomato, Ailsa Craig, was grown in a single 3 inch pot in peat and treated at the 2 to 21/2 leaves growth stage. The results were presented in Table IV in which Tomato is indicated by the code TO and the Key is otherwise as for Table III.

[5] = system: Wheat; experiment: Whole plant screen for plant growth regulator activity, wheat (WW); format: in vivo, Wheat (Timmo); conditions: WW, 4000 ppm (4 kg/ha), visual score after 2-6 weeks; for T = Tillering or side shooting: * = decrease in tillering
Protocol: as §3, §4, §5, §6, §7

[6] = system: Rice; experiment: Whole plant screen for plant growth regulator activity, rice (RC); format: in vivo, Rice (Ishikari); conditions: 4000 ppm (4 kg/ha), visual score after 2-6 weeks
Protocol: as §3, §4, §5, §6, §7

[7] = system: Tomato; experiment: Whole plant screen for plant growth regulator activity, tomato (TO); format: in vivo, Tomato (Ailsa Craig); conditions: 4000 ppm (4 kg/ha), visual score after 2-6 weeks
Protocol: as §4, §5, §6, §7
An astrisk (*) after a score under "T" (tillering) indicated a decrease in tillering.

[8] = system: Apple; experiment: Whole plant screen for plant growth regulator activity, apple (AP); format: in vivo, Apple (Red Delicious); conditions: 4000 ppm (4 kg/ha), visual score after 2-6 weeks
Protocol: as §3, §4, §5, §6, §7

[9] = side-by-side comparison with prior art compound, Table X
[10] = side-by-side comparison with prior art compound, Table XI
[11] = 2000 ppm (Foliar), side-by-side comparison with prior art compound, Table XII
[12] = 2000 ppm (Root), side-by-side comparison with prior art compound, Table XII
[13] = overall spray, approximately 28 days, Table VI
[14] = overall spray, approximately 28 days, Table VII
[15] = 2000 ppm (Foliar), approximately 28 days, Table IX
[16] = approximately 28 days, Table IX

Compound	G = Greening effect [4]	I = Interligular or internodal length reduction [4]	R = Retardation [4]	T = Tillering or side shooting [4]	G = Greening effect [5]	I = Interligular or internodal length reduction [5]	R = Retardation [5]	T = Tillering or side shooting [5]	I = Interligular or internodal length reduction [6]	R = Retardation [6]	G = Greening effect [7]	I = Interligular or internodal length reduction [7]	R = Retardation [7]	Percent reduction in rice height vs formulation blank at 500 ppm [1, 13]	Percent reduction in rice height vs formulation blank at 2000 ppm [1, 13]	percent reduction in plant height at 500 ppm [2, 14]	percent reduction in plant height at 2000 ppm [2, 14]	percent reduction in plant height at 2000 ppm [3, 15]	percent reduction in plant height at 2000 µg/mL [3, 16]	further results
CC(C)C(O)(c1cncnc1)C(C)C [A, 2-methyl-1-isopropyl-1-(pyrimidin-5-yl)-propan-1-ol, reference compound]	–	–	–	–	–	–	–	–	–	–	–	–	–	–	–	–	–	–	–	Percent reduction in rice height vs formulation blank at 500 ppm [1, 9]: 2%; Percent reduction in rice height vs formulation blank at 2000 ppm [1, 9]: 0%; percent reduction in plant height at 500 ppm [2, 10]: 0%; percent reduction in plant height at 2000 ppm [2, 10]: 0%; percent reduction in plant height at 2000 ppm [3, 11]: 0%; percent reduction in plant height at 2000 ppm [3, 12]: 23.5%
CC(C)CC#CC(O)(c1cncnc1)C(C)C (stereo not drawn) [Compound 4, 2-methyl-1-(4-methylpent-1-yne)-1-(pyrimidin-5-yl)-propan-1-ol]	–	–	–	–	–	–	–	–	–	–	–	–	–	–	–	–	–	–	–	Percent reduction in rice height vs formulation blank at 500 ppm [1, 9]: 45%; Percent reduction in rice height vs formulation blank at 2000 ppm [1, 9]: 66%; percent reduction in plant height at 500 ppm [2, 10]: 53%; percent reduction in plant height at 2000 ppm [2, 10]: 64%; percent reduction in plant height at 2000 ppm [3, 11]: 46.8%; percent reduction in plant height at 2000 ppm [3, 12]: 64.6%
CCC(C)C#CC(O)(c1cncnc1)C(C)C (stereo not drawn) [Compound 5, 2-Methyl-1-(3-methylpent-1-yne)-1-(pyrimidin-5-yl)-propan-1-ol]	1 (10-30%)	3 (61-100%)	3 (61-100%)	3 (61-100%)	2 (31-60%)	3 (61-100%)	3 (61-100%)	1 (10-30%)	2 (31-60%)	2 (31-60%)	2 (31-60%)	2 (31-60%)	2 (31-60%)	39%	68%	38%	72%	25.6%	76.1%	T = Tillering or side shooting ([6]; * = decrease in tillering): 1 (10-30%)
CC(C)C#CC(O)(c1cncnc1)C(C)C (stereo not drawn) [Compound 9, 2-Methyl-1-(3-methylbut-1-yne)-1-(pyrimidin-5-yl)propan-1-ol]	2 (31-60%)	3 (61-100%)	2 (31-60%)	2 (31-60%)	2 (31-60%)	3 (61-100%)	2 (31-60%)	2 (31-60%)	1 (10-30%)	1 (10-30%)	1 (10-30%)	1 (10-30%)	1 (10-30%)	11%	18%	20%	49%	0%	63%	A = Apical damage [6]: 1 (10-30%); G = Greening effect [6]: 1 (10-30%); G = Greening effect [8]: 1 (10-30%); I = Interligular or internodal length reduction [8]: 3 (61-100%); R = Retardation [8]: 3 (61-100%)
CC(C)C(O)(C#CC(C)(C)C)c1cncnc1 (stereo not drawn) [Compound 10, 2-Methyl-1-(3,3-dimethylbut-1-yne)-1-(pyrmidin-5-yl)propan-1-ol]	2 (31-60%)	3 (61-100%)	2 (31-60%)	2 (31-60%)	2 (31-60%)	3 (61-100%)	2 (31-60%)	1 (10-30%)	2 (31-60%)	2 (31-60%)	–	–	–	9%	20%	29%	62%	4%	69%	G = Greening effect [6]: 1 (10-30%); I = Interligular or internodal length reduction [8]: 3 (61-100%); R = Retardation [8]: 2 (31-60%)
CCC(C)CC#CC(O)(c1cncnc1)C(C)C (stereo not drawn) [Compound 11, 2-Methyl-1-(4-methylhex-1-yne)-1-(pyrimidin-5-yl)propan-1-ol]	–	–	–	–	–	–	–	–	–	–	–	–	–	4%	14%	5%	47%	6%	55%	–
CCCCCC(O)(c1cncnc1)C(C)(C)C (stereo not drawn) [Compound 15, 2,2-Dimethyl-1-(pentyl)-1-(pyrimidin-5-yl)-propan-1-ol]	–	2 (31-60%)	2 (31-60%)	–	1 (10-30%)	3 (61-100%)	2 (31-60%)	1 (10-30%)	–	–	2 (31-60%)	2 (31-60%)	2 (31-60%)	13%	39%	14%	33%	44.2%	71.1%	–
